Non-standard residues stand in square brackets, D forms with d. No end group written: not given here.
How the values were obtained:
[1] = Body weight, food intake and adiposity in apoE−/− mice fed Western diet; type: in vivo; conditions: apoE−/− mice on WD; for Total gain in body weight from baseline to endpoint, lower by: 12 weeks oral gavage, DT-109 1 mg/g; for Gross appearance of the peritoneal cavities at endpoint (yellowish coloration of the liver, enlarged visceral fat pads): glycine 0.67, leucine 0.33, DT-109/DT-110 1 mg/g; for Adipocyte hypertrophy in EAT and SAT: H&E histology (FIG. 15L)
Excerpt: All animal procedures were approved by the Institutional Animal Care & Use Committee of the University of Michigan (PRO00008239) and performed in accordance with the institutional guidelines. Eight-week-old male apolipoprotein E-deficient (apoE−/−) mice (B6.129P2-Apoetm1Unc/J, Stock No.: 002052) were obtained from Jackson Laboratories. Mice were fed Western diet (WD, 42% of calories from fat and 0.2% cholesterol by weight, Envigo TD.88137). After one week of WD feeding, blood was carefully collected from the facial vein to determine baseline plasma levels of total cholesterol (TC). […] All mice were maintained on a 12-hour light/dark cycle and had ad libitum access to food and water. Body weight and food intake were measured every one and three weeks, respectively
The experimental design is depicted in FIG. 1A. After one week of Western diet (WD) feeding to apoE−/− mice, blood was collected from the facial vein (FV) to determine baseline plasma levels of TC.
Animal procedures were approved (PRO00008239) by the Institutional Animal Care & Use Committee of the University of Michigan (U-M) and performed in accordance with the institutional guidelines. Seven weeks-old C57BL/6J or apoE−/− mice (B6.129P2-Apoetm1Unc/J, Stock:002052) were from Jackson Laboratories. AGXT1−/− mice on C57BL/6J background were generated using CRISPR/Cas9, with guide-RNA targeting exon 1 of AGXT1: 5′-[…]-3′.
Histological procedures were performed by technicians blinded to the experimental groups at the In Vivo Animal Core (IVAC) Histology Laboratory, University of Michigan. Formalin-fixed tissues were processed through graded alcohols and cleared with xylene followed by infiltration with molten paraffin using an automated VIP5 or VIP6 tissue processor (TissueTek, Sakura-Americas). Using a Histostar Embedding Station (ThermoFisher Scientific), tissues were then sectioned on a M355S rotary microtome (ThermoFisher Scientific) at 4 μm thickness and mounted on glass slides. Slides were stained for hematoxylin and eosin (H&E, ThermoFisher Scientific). For Sirius Red staining, slides were treated with 0.2 phosphomolybdic acid for 3 min and transferred to 0.1% Sirius Red saturated in picric acid (Rowley Biochemical Inc.) for 90 min, then transferred to 0.01N hydrochloric acid for 3 min.

[2] = test system: blood glucose; experiment: OGTT in C57BL/6J mice given glucose with glycine-based compounds; type: in vivo
Procedure: OGTT were performed in C57BL/6J mice after 12 h fasting (n=6-8).
OGTT were performed after 12 h fasting. […] Blood glucose concentrations were measured using a blood glucometer and test strips (Contour Next).

[3] = NASH-diet
Procedure: Body composition was assessed using nuclear magnetic resonance (NMR)-based analyzer (Minispec LF90II; Bruker Optics) at the U-M Animal Phenotyping Core. Oxygen consumption (VO2), carbon dioxide production (VCO2) and motor activity were measured using CLAMS (Columbus Instruments). Respiratory exchange ratio (RER) Is VCO2/VO2.
All measurements were performed by the University of Michigan Animal Phenotyping Core. Body fat, lean body mass, and free fluids were measured using a nuclear magnetic resonance (NMR)-based analyzer (Minispec LF90II; Bruker Optics). The analyzer is daily checked using a reference sample as recommended by the manufacture. The mice were placed individually into the measuring tube with minimum restrain. Oxygen consumption (VO2), carbon dioxide production (VCO2) and motor activity were measured using CLAMS (Columbus Instruments), an integrated open-circuit calorimeter equipped with an optical beam activity monitoring device. Mice were weighed before the measurements and individually placed into the sealed chambers (7.9″×4″×5″) with free access to food and water. The study was carried out in an experimentation room set at 20-23° C. with 12-12 h dark-light cycles (6:00 PM-6:00 AM). Measurements were carried out continuously for 48 h. During this time, animals were provided with food and water through the feeding and drinking devices located inside the chamber. VO2 and VCO2 in each chamber were sampled sequentially for 5 s in 10 min intervals and the motor activity was recorded every second in X and Z dimensions. The air flow rate through the chambers was adjusted to keep the oxygen differential around 0.3% at resting conditions. Respiratory exchange ratio (RER) was calculated as VCO2/VO2. Total energy expenditure, glucose oxidation and fat oxidation were calculated based on the values of VO2, VCO2, and the protein breakdown.
(§1) Mice fed CD and administered H2O served as control.

[4] = test system: SMAD2; conditions: NASH-diet, liver
Procedure: Liver samples were lysed in radioimmunoprecipitation assay lysis buffer (RIPA buffer, Thermo Scientific) supplemented with a protease/phosphatase inhibitor cocktail (Roche Applied Science). Proteins were resolved in 10% sodium dodecyl sulfate polyacrylamide gel electrophoresis (SDS-PAGE) and transferred to nitrocellulose membranes (Bio-Rad). The membranes were blocked for 1 h at room temperature in tris-buffered saline-Tween 20 (TBST) containing 5% fat-free milk and incubated with primary antibody at 4° C. overnight. The following primary antibodies were used: AGXT1 (Santa Cruz Biotechnology sa-517388, 1:500), HADHA (Proteintech 10758-1-AP, 1:1000), ACAA2 (ABcional A15778, 1:500), phospho-SMAD2 (Ser485/487, Cell Signaling, #3108S; 1:1000), SMAD2 (Cell Signaling Technology, #5339S; 1:1000), GAPDH (Santa Cruz Biotechnology so-365062; 1:2000), or β-Actin (Cell Signaling Technology #3700). The membranes were washed with TBST before incubated with IRDye-conjugated secondary antibodies (LI-COR Biosciences, 1:10000) at room temperature for 1 h. After TBST washing, bands were visualized and quantified using an Odyssey Infrared Imaging System (LI-COR Biosciences, version 2.1).
as §1

[5] = test system: gut microbiota; conditions: mice with established NASH
Procedure: Total genomic DNA of the gut microbiota was extracted from fecal samples using the QIAamp DNA Stool Mini Kit (51540, Qiagen) according to the manufacturer's instructions. DNA was prepared for community analysis as previously described.17 Briefly, barcoded dual-index primers specific to the V4 region of the 16S rRNA gene were used to amplify the DNA.18 PCR reactions were composed of 5 μL of 4 μM equimolar primer set, 0.15 μL of AccuPrime Taq DNA High Fidelity Polymerase, 2 μL of 10×AccuPrime PCR Buffer II (Thermo Fisher Scientific 12346094), 11.85 μL of PCR-grade water, and 1 μL of DNA template. […] The normalized reactions were pooled and quantified using the Kapa Biosystems Library qPCR MasterMix (ROX Low) Quantification kit for Illumina platforms (KK4873). […]
DNA sequencing data was processed using Mothur according to SOP and focused primarily on α- and β-diversity based analyses. […] Constrained ordination RDA (redundancy analysis) was calculated, and the significance of environmental variables was checked by forward selection analysis. […] The principal component analysis (PCA) was plotted accordingly using Phyloseq package in R. The correlations between changes in the altered bacterial genera and NAFLD-related parameters in the liver or plasma were calculated using nonparametric Spearman's test.

[6] = test system: blood glucose; conditions: previous studies from the applicant's lab; cited from earlier work
[7] = test system: plasma glucose; conditions: humans, glycine ingested together with glucose; cited from earlier work
[8] = test system: circulating TG; conditions: apoE−/− mice, chronic glycine supplementation 1 mg/g/day; cited from earlier work
[9] = obese C57BL/6 mice, chronic glycine supplementation 1 mg/g/day; cited from earlier work
[10] = test system: hemoglobin-A1c and plasma TNFR1; conditions: T2D patients, 5 g/day for 3 months; cited from earlier work
[11] = KK-Ay mice, dietary glycine; cited from earlier work
[12] = sucrose-fed rats; cited from earlier work
[13] = 0.5 mg/g/day DT-109, compared to the H2O controls

Gly-Gly-Leu [DT-109]
Total gain in body weight from baseline to endpoint, lower by ([1]; glycine 0.67 mg/g, vs WD+H2O): 28% | Gross appearance of the peritoneal cavities at endpoint (yellowish coloration of the liver, enlarged visceral fat pads) ([1]; 12 weeks): attenuated | Adipocyte hypertrophy in EAT and SAT [1]: reduced | Glucose-lowering effect in OGTT compared with glycine ([2]; 12 h fasting, glucose 2 mg/g with 0.5 mg/g compound, oral): lowered glucose more efficiently than glycine | Glucose-lowering effect in OGTT compared with equivalent levels of free leucine or glycine ([2]; DT-109 0.5 mg/g vs leucine 0.17 or glycine 0.33 mg/g): particularly when compared to equivalent levels of its individual AA | Body fat [3, 13]: reduced body fat | Lean mass [3, 13]: preserved lean mass | Respiratory exchange ratio (RER) ([3]; CLAMS weeks 22-23, DT-109 at 0.5 mg/g/day): no significant differences | SMAD2 Ser465/467 phosphorylation [4]: reduced SMAD2 Ser465/467 phosphorylation | Bacterial genus Alistipes in gut microbiota [5]: increased | Bacterial genus Clostridium sensu stricto in gut microbiota [5]: decreased | Glucose-lowering effects (previous studies) [6]: profound glucose-lowering effects

NCC(=O)O [glycine, reference compound]
Total gain in body weight from baseline to endpoint, lower by ([1]; glycine 0.67 mg/g, vs WD+H2O): 51% | Gross appearance of the peritoneal cavities at endpoint (yellowish coloration of the liver, enlarged visceral fat pads) ([1]; 12 weeks): attenuated | Adipocyte hypertrophy in EAT and SAT [1]: reduced | Endpoint body weight, lower by ([1]; oral gavage 6 times per week, 12 weeks, glycine 0.67 mg/g, vs WD+H2O): 12% | Attenuation of the increase in plasma glucose [7]: > 50% | Circulating TG [8]: reduce circulating TG | Glucose tolerance and fat loss [9]: restore glucose tolerance and accelerate fat loss | Hemoglobin-A1c and plasma TNFR1 [10]: reduced hemoglobin-A1c and plasma TNFR1 | Glucose tolerance, circulating TG, ALT, HS and inflammatory infiltration [11]: improved glucose tolerance, lowered circulating TG and alanine-aminotransferase (ALT), while attenuating HS and inflammatory infiltration | Intra-abdominal fat, plasma TG and FAO markers in hepatic mitochondria [12]: reduced intra-abdominal fat, plasma TG and increased FAO markers in hepatic mitochondria

CC(C)C[C@H](N)C(=O)O [leucine]
Gross appearance of the peritoneal cavities at endpoint (yellowish coloration of the liver, enlarged visceral fat pads) ([1]; 12 weeks): yellowish coloration of the liver and enlarged visceral fat pads

Gly-Gly-[dL] [DT-110]
Gross appearance of the peritoneal cavities at endpoint (yellowish coloration of the liver, enlarged visceral fat pads) ([1]; 12 weeks): attenuated

From patent publication US20230181673A1, “TRI-PEPTIDES AND TREATMENT OF METABOLIC, CARDIOVASCULAR AND INFLAMMATORY DISORDERS” (Diapin Therapeutics, LLC, priority 2018, published 2023)
